Test system: Human microvascular endothelial cells (ECs)
Assay: Senescence-associated β-galactosidase (SA-β-gal) staining with SYTO cell count
Type: cell-based
Description: Cell culture. Human microvascular endothelial cells (ECs) purchased from Lonza (cat # CC-2543, Basel, Switzerland) were cultured continuously for three passages from passage (P) 4 to P6 in the presence of clinically relevant doses of esomeprazole or vehicle (DMSO) (Shin J M, Kim N. Pharmacokinetics and pharmacodynamics of the proton pump inhibitors. Journal of neurogastroenterology and motility. 2013; 19:25-35). All in vitro experiments were performed at P6 upon confluency. ECs were cultured and maintained in EBM-2 Basal Medium (cat # CC-3156, Lonza, Basel, Switzerland) supplemented with EGM-2 MV SingleQuots™ Kit—growth factors, cytokines, and antibiotics (cat # CC-4147, Lonza, Basel, Switzerland).
Senescence-associated β-galactosidase (SA-β-gal) staining. Senescence of ECs was measured using the Cellular Senescence Assay kit from Cell Biolabs, Inc. (Cat: CBA-230, San Diego, Calif.). The protocol was performed according to the manufacturer's guide. Briefly, Ecs treated continuously for 3 passages with esomeprazole or vehicle were plated in a 6 well plate. Upon confluency, cells were initially fixed and later incubated with SA-β-gal working solution for 16 hours in a non-humidified CO2 free incubator at 37° C. After incubation the cells were counter stained with SYTO® GREEN fluorescent nucleic acid stain (Life Technologies). Several random images per well were taken using light and fluorescent microscope. The SA-β-gal positive cells were counted manually and total cell number per field was quantified using NIH ImageJ software.

[1] = chronic treatment, at P6, vs vehicle

Compound: Cc1nc2c(OCc3ccccc3)cccn2c1CC#N [SCH-28080]
- endothelial senescence / aging (overall finding) (chronic exposure of human ECs): accelerated
- SA-β-gal-positive cells [1]: increased
- total cell count per microscopic field (SYTO-green staining) [1]: decrease

Reference: patent publication US20200338056A1, “INDUCTION OF SENESCENCE USING PROTON PUMP INHIBITORS” (THE METHODIST HOSPITAL SYSTEM, priority 2016, published 2020)
